# Read-outs that look alike come from different tables or passages of the source.
# Tests used:
# [1] = 37 C., cited from earlier work
# [2] = Amount of xenon gas dissolved in water, blood and oil with increasing pressure, computed by Henry's Law; assay type: physicochemical
# Description: Dissolution of xenon gas in liquid, such as saline or other medical fluid, including an iodine X-ray contrast solution, provides a diagnostic contrast composition with a variety of available concentrations of xenon (mg) per mL of liquid based on a number of parameters, including pressure or presence of one or more concentration-augmenting compositions. For example, the concentration of the gas-evolving fluid in the carrier fluid may be dependent on pressure and temperature. In certain circumstances, it may be desirable to augment the concentration of the gas-evolving fluid beyond the carrying capacity of the carrier fluid at, for example, standard temperature and pressure. For example, according to Henry's Law, the amount of a gas dissolved in a liquid is proportional to the partial pressure of the gas in the volume of the liquid at a given temperature. Table 2 below uses the coefficients from Table 1 above to compute the amount of xenon gas that is dissolved in water, blood, and oil based on increasing pressure (from 1 atm to 30 atm).
# [3] = humans, compared with rats; cited from earlier work
# [4] = rats; cited from earlier work
SMILES,bunsen constant ([1]; olive oil),bunsen constant ([1]; seawater (*1.3 of pure water)),bunsen constant ([1]; water),"Amount of Gas Dissolved in the Liquid ([2]; blood, 1 atm) [mgmXe/ml]","Amount of Gas Dissolved in the Liquid ([2]; blood, 2 atm) [mgmXe/ml]","Amount of Gas Dissolved in the Liquid ([2]; blood, 4 atm) [mgmXe/ml]","Amount of Gas Dissolved in the Liquid ([2]; blood, 5 atm) [mgmXe/ml]","Amount of Gas Dissolved in the Liquid ([2]; blood, 30 atm) [mgmXe/ml]","Amount of Gas Dissolved in the Liquid ([2]; oil, 1 atm) [mgmXe/ml]","Amount of Gas Dissolved in the Liquid ([2]; oil, 2 atm) [mgmXe/ml]","Amount of Gas Dissolved in the Liquid ([2]; oil, 4 atm) [mgmXe/ml]","Amount of Gas Dissolved in the Liquid ([2]; oil, 5 atm) [mgmXe/ml]","Amount of Gas Dissolved in the Liquid ([2]; oil, 30 atm) [mgmXe/ml]","Amount of Gas Dissolved in the Liquid ([2]; saline, 1 atm) [mgmXe/ml]","Amount of Gas Dissolved in the Liquid ([2]; saline, 2 atm) [mgmXe/ml]","Amount of Gas Dissolved in the Liquid ([2]; saline, 4 atm) [mgmXe/ml]","Amount of Gas Dissolved in the Liquid ([2]; saline, 5 atm) [mgmXe/ml]","Amount of Gas Dissolved in the Liquid ([2]; saline, 30 atm) [mgmXe/ml]",retention half-life [3],retention half-life [4]
[Xe] [xenon],1.7,0.1105,0.085,0.7603,1.521,3.041,3.801,22.81,9.942,19.88,39.77,49.71,298.2589,0.4971,0.9942,1.988,2.485,14.91,–,–
FC(F)(F)C(F)(F)C(F)(F)C(F)(F)C(F)(F)C(F)(F)C(F)(F)C(F)(F)Br [Perfluorooctylbromide],–,–,–,–,–,–,–,–,–,–,–,–,–,–,–,–,–,–,shorter retention half-life in humans,about 6 hours
